In patent US20230407243A1, “GENETIC PLATFORM TO INVESTIGATE THE FUNCTIONS OF BACTERIAL DRUG EFFLUX PUMPS” (priority 2022, published 2023):
Read-outs that look alike come from different tables or passages of the source.

Columns and labels:
Format in all cases: cell-based, Escherichia coli
[1] = test system: EKO-35 porinated strain expressing acrF (AcrEF); test: Checkerboard synergy (FICI), porinated strain
Outline: (§1)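 Checkerboard broth microdilution per CLSI in MHB II, inocula by colony resuspension; MIC taken as lowest concentration with no growth by OD600. FICI = (CA/MICA)+(CB/MICB), drug A being PAβN or NMP and drug B the antibiotic; synergy <0.5, additive >0.5–1.0, indifferent >1.0–2.0, antagonism >2.0.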

[2] = test system: EKO-35 porinated strain expressing acrD; test: Checkerboard synergy (FICI), porinated strain
Outline: as §1

[3] = test system: EKO-35-Pore strains producing other efflux pumps; test: Checkerboard synergy (FICI), porinated strain
Outline: as §1

[4] = test system: EKO-35 strains producing different efflux pumps (EKO-35 araC::X); test: Checkerboard synergy (FICI) of PAβN or NMP with antibiotics
Outline: as §1

[5] = test system: wild-type E. coli K-12
Outline: as §1

[6] = test system: EKO-35 acrBD408A
Outline: as §1

[7] = test system: ΔtolC
Outline: as §1

[8] = test system: EKO-35
Outline: as §1

[9] = test system: ΔtolC-Pore
Outline: as §1

[10] = EKO-35 acrEF Pore, PAβN + antibiotic
[11] = EKO-35 acrD Pore, PAβN + antibiotic
[12] = strain EKO-35 acrD Pore, NMP + antibiotic
[13] = EKO-35 mdtEF Pore, NMP + antibiotic
[14] = EKO-35 mdtEF Pore, PAβN + antibiotic
[15] = strain EKO-35 mdtEF Pore, NMP + antibiotic
[16] = EKO-35 mdtEF, PAβN + antibiotic
[17] = strain EKO-35 acrB, NMP + antibiotic
[18] = strain EKO-35 acrD, NMP + antibiotic
[19] = strain EKO-35 acrEF, NMP + antibiotic
[20] = EKO-35 acrBD408A, NMP + antibiotic
[21] = EKO-35 acrBD408A, PAβN + antibiotic
[22] = strain EKO-35 acrBD408A, NMP + antibiotic
[23] = strain EKO-35, NMP + antibiotic
[24] = strain ΔtolC Pore, NMP + antibiotic

## CC(=O)O[C@H]1C[C@@]2(C)[C@@H](C[C@@H](O)[C@H]3[C@@]4(C)CC[C@@H](O)[C@@H](C)[C@@H]4CC[C@@]32C)/C1=C(\CCC=C(C)C)C(=O)O [fusidic acid]
[1]; EKO-35 acrEF Pore, NMP + antibiotic
  Effect: Additive
[1]; [10]
  Effect: Synergistic
  FICI: 0.313
[1]; EKO-35 acrEF Pore, antibiotic alone (PAβN checkerboard)
  MICb Alone: 4 µg/mL
[1]; EKO-35 acrEF Pore, antibiotic in combination with PAβN
  MICb Combined: 1 µg/mL
[1]; strain EKO-35 acrEF Pore, NMP + antibiotic
  Effect: Additive (additive (FICI >0.5-1.0))
[1]; strain EKO-35 acrEF Pore, antibiotic alone
  MICb Alone: 2 µg/mL
[1]; strain EKO-35 acrEF Pore, antibiotic in combination with NMP
  MICb Combined: 1 µg/mL
[2]; EKO-35 acrD Pore, NMP + antibiotic
  FICI: 1.000
[2]; [11]
  Effect: Synergistic
  FICI: 0.250
[2]; EKO-35 acrD Pore, antibiotic alone (PAβN checkerboard)
  MICb Alone: 64 µg/mL
[2]; EKO-35 acrD Pore, antibiotic in combination with PAβN
  MICb Combined: 8 µg/mL
[2]; [12]
  Effect: — (indifferent (FICI >1.0))
  FICI: 1.000
[2]; strain EKO-35 acrD Pore, antibiotic alone
  MICb Alone: 64 µg/mL
[2]; strain EKO-35 acrD Pore, antibiotic in combination with NMP
  MICb Combined: 32 µg/mL
[3]; [13]
  Effect: Additive
  FICI: 0.750
[3]; [14]
  Effect: Synergistic
  FICI: 0.250
[3]; EKO-35 mdtEF Pore, antibiotic alone (PAβN checkerboard)
  MICb Alone: 16 µg/mL
[3]; EKO-35 mdtEF Pore, antibiotic in combination with PAβN
  MICb Combined: 2 µg/mL
[3]; [15]
  Effect: Additive (additive (FICI >0.5-1.0))
  FICI: 0.750
[3]; strain EKO-35 mdtEF Pore, antibiotic alone
  MICb Alone: 8 µg/mL
[3]; strain EKO-35 mdtEF Pore, antibiotic in combination with NMP
  MICb Combined: 2 µg/mL
[4]; EKO-35 acrB, NMP + antibiotic
  Effect: Synergistic
  FICI: 0.500
[4]; EKO-35 acrB, PAβN + antibiotic
  Effect: Synergistic
  FICI: 0.129
[4]; EKO-35 acrB, antibiotic in combination with PAβN
  MICb Combined: 4 µg/mL
[4]; EKO-35 acrD, NMP + antibiotic
  Effect: Additive
  FICI: 0.563
[4]; EKO-35 acrD, PAβN + antibiotic
  Effect: Synergistic
  FICI: 0.141
[4]; EKO-35 acrD, antibiotic alone (PAβN checkerboard)
  MICb Alone: 256 µg/mL
[4]; EKO-35 acrD, antibiotic in combination with PAβN
  MICb Combined: 4 µg/mL
[4]; EKO-35 acrEF, NMP + antibiotic
  Effect: Additive
  FICI: 0.750
[4]; EKO-35 acrEF, PAβN + antibiotic
  Effect: Synergistic
[4]; EKO-35 acrEF, antibiotic alone (PAβN checkerboard)
  MICb Alone: 32 µg/mL
[4]; EKO-35 acrEF, antibiotic in combination with PAβN
  MICb Combined: 8 µg/mL
[4]; EKO-35 mdtEF, NMP + antibiotic
  Effect: Synergistic
[4]; [16]
  Effect: Synergistic
  FICI: 0.250
[4]; EKO-35 mdtEF, antibiotic alone (PAβN checkerboard)
  MICb Alone: 64 µg/mL
[4]; EKO-35 mdtEF, antibiotic in combination with PAβN
  MICb Combined: 8 µg/mL
[4]; [17]
  Effect: Synergistic (Synergy (FICI ≤0.5))
  FICI: 0.500
[4]; strain EKO-35 acrB, antibiotic in combination with NMP
  MICb Combined: 256 µg/mL
[4]; [18]
  Effect: Additive (additive (FICI >0.5-1.0))
  FICI: 0.563
[4]; strain EKO-35 acrD, antibiotic alone
  MICb Alone: 256 µg/mL
[4]; strain EKO-35 acrD, antibiotic in combination with NMP
  MICb Combined: 16 µg/mL
[4]; [19]
  Effect: Additive (additive (FICI >0.5-1.0))
  FICI: 0.750
[4]; strain EKO-35 acrEF, antibiotic alone
  MICb Alone: 32 µg/mL
[4]; strain EKO-35 acrEF, antibiotic in combination with NMP
  MICb Combined: 16 µg/mL
[4]; strain EKO-35 mdtEF, NMP + antibiotic
  Effect: Synergistic (Synergy (FICI ≤0.5))
[4]; strain EKO-35 mdtEF, antibiotic alone
  MICb Alone: 64 µg/mL
[4]; strain EKO-35 mdtEF, antibiotic in combination with NMP
  MICb Combined: 8 µg/mL
[5]; K-12, NMP + antibiotic
  Effect: Synergistic
  FICI: 0.375
[5]; K-12, PAβN + antibiotic
  Effect: Synergistic
  FICI: 0.156
[5]; K-12, antibiotic alone (PAβN checkerboard)
  MICb Alone: 1024 µg/mL
[5]; K-12, antibiotic in combination with PAβN
  MICb Combined: 32 µg/mL
[5]; strain K-12, NMP + antibiotic
  Effect: Synergistic (Synergy (FICI ≤0.5))
  FICI: 0.375
[5]; strain K-12, antibiotic alone
  MICb Alone: 1024 µg/mL
[5]; strain K-12, antibiotic in combination with NMP
  MICb Combined: 128 µg/mL
[6]; [20]
  Effect: Synergistic
  FICI: 0.500
[6]; [21]
  Effect: Synergistic
  FICI: 0.250
[6]; EKO-35 acrBD408A, antibiotic alone (PAβN checkerboard)
  MICb Alone: 4 µg/mL
[6]; EKO-35 acrBD408A, antibiotic in combination with PAβN
  MICb Combined: 0.5 µg/mL
[6]; [22]
  Effect: Synergistic (Synergy (FICI ≤0.5))
  FICI: 0.500
[6]; strain EKO-35 acrBD408A, antibiotic alone
  MICb Alone: 4 µg/mL
[6]; strain EKO-35 acrBD408A, antibiotic in combination with NMP
  MICb Combined: 1 µg/mL
[7]; strain ΔtolC, NMP + antibiotic
  Effect: Additive (additive (FICI >0.5-1.0))
  FICI: 0.625
[7]; strain ΔtolC, antibiotic alone
  MICb Alone: 4 µg/mL
[7]; strain ΔtolC, antibiotic in combination with NMP
  MICb Combined: 0.5 µg/mL
[7]; ΔtolC, NMP + antibiotic
  Effect: Additive
  FICI: 0.625
[7]; ΔtolC, PAβN + antibiotic
  Effect: Synergistic
  FICI: 0.375
[7]; ΔtolC, antibiotic alone (PAβN checkerboard)
  MICb Alone: 2 µg/mL
[7]; ΔtolC, antibiotic in combination with PAβN
  MICb Combined: 0.25 µg/mL
[8]; EKO-35, NMP + antibiotic
  Effect: Additive
  FICI: 0.625
[8]; EKO-35, PAβN + antibiotic
  Effect: Synergistic
  FICI: 0.158
[8]; EKO-35, antibiotic alone (PAβN checkerboard)
  MICb Alone: 4 µg/mL
[8]; EKO-35, antibiotic in combination with PAβN
  MICb Combined: 0.13 µg/mL
[8]; efflux-deficient strains EKO-35, EKO-35 acrBD408A, ΔtolC
  interaction of PAβN in combination with the labelled antibiotic (FICI): synergized
[8]; [23]
  Effect: Additive (additive (FICI >0.5-1.0))
  FICI: 0.625
[8]; strain EKO-35, antibiotic alone
  MICb Alone: 4 µg/mL
[8]; strain EKO-35, antibiotic in combination with NMP
  MICb Combined: 0.5 µg/mL
[9]; [24]
  Effect: Additive (additive (FICI >0.5-1.0))
  FICI: 0.750
[9]; strain ΔtolC Pore, antibiotic alone
  MICb Alone: 2 µg/mL
[9]; strain ΔtolC Pore, antibiotic in combination with NMP
  MICb Combined: 1 µg/mL
[9]; ΔtolC Pore, NMP + antibiotic
  Effect: Additive
  FICI: 0.750
[9]; ΔtolC Pore, PAβN + antibiotic
  Effect: Synergistic
  FICI: 0.375
[9]; ΔtolC Pore, antibiotic alone (PAβN checkerboard)
  MICb Alone: 2 µg/mL
[9]; ΔtolC Pore, antibiotic in combination with PAβN
  MICb Combined: 0.25 µg/mL
